In patent publication US20090227572A1, “TREATMENT OF DIABETIC WOUNDS AND PERIPHERAL NEUROPATHIES” (Cytrx Corporation, priority 2007, published 2009):

Columns and labels:
[1] = test system: Homozygous, diabetic mice; assay: Wound healing in homozygous diabetic mice, systemic or topical administration (Example 2); assay type: in vivo; conditions: topical administration, 4% w/v aqueous solution, FIG. 7
Protocol: Homozygous, diabetic mice described above, and wounded in the manner described above in Example 1, were treated by topical administration of iroxanadine or arimoclomol. A 4% w/v aqueous solution of arimoclomol were separately administered topically to the wounded position. […] dosage of iroxanadine was at 10 mg/kg IP, b.i.d., a relatively low concentration.

[2] = test system: BKS.Cg-m^+/+ Lepr^db/J homozygous mice; assay: Wound healing in diabetic db/db mice, daily oral dosing (Example 1); assay type: in vivo
Source text: Seventy male BKS.Cg-m^+/+ Lepr^db/J homozygous mice were housed and handled for seven (7) days prior to commencement of the procedure for acclimation purposes. The mice weighed 26.1-41.2 g on Day 0, at the age of 8 weeks. As control, twenty male BKS.Cg-m^+/− Lepr^db/J heterozygous mice were handled similarly. These mice weighed 19.6-25.1 g on Day 0, at the age of 8 weeks. Mice were divided into Groups (1) to (9), each group consisting of 10 mice.
On Day 0, two full-thickness wounds were made on each mouse in Groups A-I (n=80). […]
Immediately following the generation of the skin wound, the original wound was traced by using a fine point maker to outline the perimeter of the wound onto transparency paper (the mouse was immobilized using isoflurane anesthesia for this procedure), and wound size was then traced every 3 days. […] Outlines were digitized, quantified and analyzed using computer imaging software as described below.
The mice began daily dosing as detailed in Table 1 on the day of wounding. The mice continued to receive daily treatment until wound closure as determined by the study director and the client. Blood glucose levels were measured by glucometer prior to the first scheduled dosing and weekly thereafter-using blood collected by tail nick. Body weights were measured weekly beginning prior to treatment. […]
Raw data was reviewed (read and understood) for accuracy. […]

[3] = mice, previously determined; cited from earlier work
[4] = rat, subchronic studies; cited from earlier work
[5] = Morbidity, mortality and body weights in the wound healing study (Example 1); assay type: in vivo, mice
Protocol: The mice began daily dosing as detailed in Table 1 on the day of wounding. The mice continued to receive daily treatment until wound closure as determined by the study director and the client. Blood glucose levels were measured by glucometer prior to the first scheduled dosing and weekly thereafter-using blood collected by tail nick. Body weights were measured weekly beginning prior to treatment. Clinical observations were conducted weekly.

Structure (SMILES) | wound healing over time [1] | wound closure rate ([2]; rate analysed for Days 0-8 (with ethanol) and Days 9-12 (no ethanol), FIG. 5E) | odds of closure of both wounds (hazard ratio, proportional hazard model) ([2]; relative to homozygous diabetic control Group (3), iroxanadine 10-200 mg/kg Groups (4)-(8), arimoclomol 200 mg/kg Group 9, QD PO, FIG. 4) | acute oral LD50 [3] | no observed adverse effect level (NOAEL) [4] | tolerability of the highest dose relative to maximum tolerated dose (MTD) ([5]; 200 mg/kg QD PO, administered with EtOH) | unplanned mice deaths outside of the study protocol ([5]; highest dose 200 mg/kg QD PO, Groups (2) and (8), formulation contained EtOH Days 0-8) | effect on body weight ([5]; mice, daily until wound closure, FIG. 1A-B)
[O-][n+]1cccc(/C(Cl)=N/OC[C@H](O)CN2CCCCC2)c1 [arimoclomol, N-[2-hydroxy-3-(1-piperidinyl)propoxy]-pyridine-1-oxide-3-carboximidoyl chloride] | clearly showed an accelerated healing of wounds | statistically relevant increase in the wound closure rate | appeared to be effective in increasing the odds of wound closure | – | – | – | – | –
c1cncc(C2=NOCC(CN3CCCCC3)N2)c1 (centres unmarked) [iroxanadine, 5,6-dihydro-5(1-piperidinyl)-methyl-3-(3-pyridyl)-4H-1,2,4-oxadiazine] | – | – | – | 3800 mg/kg | 400 mg/kg | may be above the maximum tolerated dose (MTD) and approaching LD50 | Eight of the nine deaths | No significant effect on body weight was observed except in diabetic animals treated with the highest dose
